Assay results published in US9617225B2 (VIROSTATICS SRL, priority 2012, dated 2017).
Like-named read-outs stand apart in the source and are kept apart here.

Key:
[1] = test system: Primary T cells; test: Cytotoxicity, viability by flow cytometry; format: cell-based
Protocol: Primary T cells are cultured and treated with different concentrations of the test compound. Viability is analysed by measuring through flow cytometry based techniques the percentage of viable cells, compared to untreated control=100%).

[2] = target: human CDK9/CyclinT kinase complex (Homo sapiens (Human), UniProt P50750); test: In Vitro CDK9/CyclinT Assay (IMAP fluorescent polarization); format: biochemical
Chain of human CDK9/CyclinT kinase complex (P50750 whole entry): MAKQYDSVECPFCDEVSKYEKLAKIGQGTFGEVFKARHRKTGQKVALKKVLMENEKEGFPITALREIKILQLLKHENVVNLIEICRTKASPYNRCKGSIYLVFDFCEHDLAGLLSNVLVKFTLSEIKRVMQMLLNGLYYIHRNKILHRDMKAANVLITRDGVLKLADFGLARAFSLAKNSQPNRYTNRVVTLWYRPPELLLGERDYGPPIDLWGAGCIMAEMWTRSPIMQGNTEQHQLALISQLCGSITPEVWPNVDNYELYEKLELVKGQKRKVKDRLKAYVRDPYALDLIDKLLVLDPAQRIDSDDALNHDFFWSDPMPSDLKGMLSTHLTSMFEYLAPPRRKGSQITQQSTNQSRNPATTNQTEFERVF
Chain of human CDK9/CyclinT kinase complex (O60563 whole entry partner): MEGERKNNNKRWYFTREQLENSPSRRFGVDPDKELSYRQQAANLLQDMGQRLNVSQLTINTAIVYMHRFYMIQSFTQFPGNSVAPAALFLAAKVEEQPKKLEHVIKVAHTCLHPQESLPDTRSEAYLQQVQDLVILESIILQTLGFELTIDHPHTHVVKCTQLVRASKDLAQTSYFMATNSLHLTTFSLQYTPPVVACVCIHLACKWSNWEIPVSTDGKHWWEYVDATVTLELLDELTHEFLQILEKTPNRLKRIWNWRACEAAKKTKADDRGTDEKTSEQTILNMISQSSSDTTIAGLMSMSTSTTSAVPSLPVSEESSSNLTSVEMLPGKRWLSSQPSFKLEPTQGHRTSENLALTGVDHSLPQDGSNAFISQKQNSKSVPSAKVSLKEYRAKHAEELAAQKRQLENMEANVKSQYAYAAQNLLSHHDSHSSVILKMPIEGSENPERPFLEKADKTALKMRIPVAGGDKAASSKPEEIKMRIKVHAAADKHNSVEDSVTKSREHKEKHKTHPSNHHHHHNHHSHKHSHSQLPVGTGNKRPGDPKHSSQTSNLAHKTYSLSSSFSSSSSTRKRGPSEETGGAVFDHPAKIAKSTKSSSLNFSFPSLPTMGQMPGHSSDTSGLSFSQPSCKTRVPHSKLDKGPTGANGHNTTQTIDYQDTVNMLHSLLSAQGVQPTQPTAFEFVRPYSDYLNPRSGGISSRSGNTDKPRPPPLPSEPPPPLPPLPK
Protocol: In Vitro CDK9/CyclinT Assay
The activity of the compounds described in the present invention can be determined by measuring the phosphorylation of a fluorescently-labeled peptide by human CDK9/CyclinT kinase complex by fluorescent polarization using a commercially available IMAP Screening Express Assay Kit (Molecular devices).
Test compounds were diluted in 100% DMSO to 5 mM stock concentration, then further dilutions were made in H2O or 100% DMSO to desirable concentrations. Each reaction consisted of 5 nM enzyme: CDK9/CyclinT (Proqinase cat#0371-0345-1), 400 nM TAMRA-Rbtide (synthetic 15-mer peptide derived from human retinoblastoma tumor suppressor protein labeled with TAMRA dye, Genecust Europe), 12 μM ATP (=Kmapp, Sigma-Aldrich) and kinase buffer: 20 mM MOPS pH 7 (Sigma-Aldrich), 1 mM DTT (Sigma-Aldrich), 10 mM MgCl2 (Sigma-Aldrich), 0.01% Tween 20 (Sigma-Aldrich).
For each reaction, 4 or 6 μl containing TAMRA-Rbtide, ATP and kianse buffer were combined with 2 μl diluted compound in H2O or 0.028 μl compound in 100% DMSO. The kinase reaction was started by the addition of 2 μl diluted enzyme. The reaction was allowed to run for 1 hour at room temperature. The reaction was stopped by adding 15 μl IMAP beads (1:400 beads in progressive (100% buffer A) 1× buffer).

Structure (SMILES)	TD50 [1]	IC50 ([2]; Table 1)	IC50 [2]	TD50 ([1]; Table 4, toxic dose 50%, viable cells)
COc1ccc(Nc2cc(-c3ccccc3OC)ncn2)cc1NS(C)(=O)=O [Example 9, N-(2-Methoxy-5-(6-(2-methoxyphenyl)pyrimidin-4-ylamino)phenyl)methanesulfonamide]	>1.5 µM	–	–	–
COc1cc(F)c(Nc2cc(-c3ccccc3OC)ncn2)cc1N [Example 92, 4-Fluoro-6-methoxy-N^3-[6-(2-methoxy-phenyl)-pyrimidin-4-yl]-benzene-1,3-diamine]	>20 µM	< 10000 nM	–	–
CCOc1ccc(Nc2cc(-c3ccccc3OC)ncn2)cc1Cn1cnc2ccccc21 [Example 39, N-(3-((1H-Benzo[d]imidazol-1-yl)methyl)-4-ethoxyphenyl)-6-(2-methoxyphenyl)pyrimidin-4-amine]	0.6 µM	< 100 nM	–	–
COc1ccccc1-c1cc(Nc2ccc(Cl)c(CO)c2)ncn1 [Example 6, (2-Chloro-5-(6-(2-methoxyphenyl)pyrimidin-4-ylamino)phenyl)methanol]	>0.5 µM	< 1000 nM	–	–
COc1ccc(Nc2cc(-c3ccccc3OC)ncn2)cc1C(=O)NCc1ccccc1 [Example 23, N-Benzyl-2-methoxy-5-(6-(2-methoxyphenyl)pyrimidin-4-ylamino)benzamide]	>0.5 µM	< 1000 nM	–	–
CCOc1cc(F)ccc1-c1cc(Nc2cc(F)c(OC)c(C(N)=O)c2)ncn1 [Example 139, 5-[6-(2-Ethoxy-4-fluoro-phenyl)-pyrimidin-4-ylamino]-3-fluoro-2-methoxy-benzamide]	>20 µM	< 10000 nM	–	–
COc1ccc(Nc2cc(-c3ccccc3O)ncn2)cc1N [Example 70, 2-[6-(3-Amino-4-methoxy-phenylamino)-pyrimidin-4-yl]-phenol]	>10 µM	> 10000 nM	–	–
COC(=O)c1cc(Nc2cc(-c3ccccc3OC)ncn2)ccc1O [Example 21, Methyl 2-hydroxy-5-(6-(2-methoxyphenyl)pyrimidin-4-ylamino)benzoate]	>0.5 µM	< 1000 nM	–	–
COc1ccc(Nc2cc(-c3ccccc3OC)ncn2)cc1CNCc1ccccc1 [Example 1, N-(3-((Benzylamino)methyl)-4-methoxyphenyl)-6-(2-methoxyphenyl)pyrimidin-4-amine]	3.5 µM	–	< 1000 nM	–
COc1ccccc1-c1cc(Nc2ccc(N3CCN(C)CC3)c(Cn3cnc4ccccc43)c2)ncn1 [Example 2, N-(3-((1H-Benzo[d]imidazol-1-yl)methyl)-4-(4-methylpiperazin-1-yl)phenyl)-6-(2-methoxyphenyl)pyrimidin-4-amine]	0.4 µM	< 100 nM	–	–
COc1ccc(Nc2cc(-c3ccccc3OC)ncn2)cc1CO [Example 24, (2-Methoxy-5-(6-(2-methoxyphenyl)pyrimidin-4-ylamino)phenyl)methanol]	>0.5 µM	< 1000 nM	–	–
COc1ccc(Nc2cc(-c3ccccc3OC)ncn2)cc1CN(C)C [Example 35, N-(3-((Dimethylamino)methyl)-4-methoxyphenyl)-6-(2-methoxyphenyl)pyrimidin-4-amine]	3 µM	–	–	–
COc1ccccc1-c1cc(Nc2cc(F)c(OC)c(C(N)=O)c2)ncn1 [Example 137, 3-Fluoro-2-methoxy-5-[6-(2-methoxy-phenyl)-pyrimidin-4-ylamino]-benzamide]	>2 µM	< 10000 nM	–	–
CNC(=O)c1cc(Nc2cc(-c3ccccc3OC)ncn2)ccc1OC [Example 25, 2-Methoxy-5-(6-(2-methoxyphenyl)pyrimidin-4-ylamino)-N-methylbenzamide]	>0.5 µM	< 1000 nM	–	–
COc1ccc(Nc2cc(-c3cc(F)ccc3OC)ncn2)cc1O [Example 122, 5-[6-(5-Fluoro-2-methoxy-phenyl)-pyrimidin-4-ylamino]-2-methoxy-phenol]	>2 µM	< 1000 nM	–	–
COc1ccc(Nc2cc(-c3ccccc3OC)ncn2)cc1CNS(C)(=O)=O [Example 4, N-(2-Methoxy-5-(6-(2-methoxyphenyl)pyrimidin-4-ylamino)benzyl)methanesulfonamide]	2.1 µM	< 100 nM	–	–
COc1ccc(Nc2cc(-c3ccccc3OC)ncn2)cc1C=O [Example 29, 2-Methoxy-5-(6-(2-methoxyphenyl)pyrimidin-4-ylamino)benzaldehyde]	>0.5 µM	< 1000 nM	–	–
COc1cccc(-c2cc(Nc3ccc(OC)c(N)c3)ncn2)c1 [Example 68, 4-Methoxy-N^1-[6-(3-methoxy-phenyl)-pyrimidin-4-yl]-benzene-1,3-diamine]	>10 µM	> 10000 nM	–	–
COc1ccc(Nc2cc(-c3ccc(F)cc3OC)ncn2)cc1OC(C)=O [Example 126, Acetic acid 5-[6-(4-fluoro-2-methoxy-phenyl)-pyrimidin-4-ylamino]-2-methoxy-phenyl ester]	–	–	< 1000 nM	>2 µM

Structure (SMILES)	TD50 [1]	IC50 ([2]; Table 1)	IC50 [2]	TD50 ([1]; Table 4, toxic dose 50%, viable cells)
COc1ccc(Nc2cc(-c3cccc(F)c3OC)ncn2)cc1[N+](=O)[O-] [Example 80, [6-(3-Fluoro-2-methoxy-phenyl)-pyrimidin-4-yl]-(4-methoxy-3-nitro-phenyl)-amine]	–	> 10000 nM	–	–
COc1ccc(Nc2cc(-c3ccccc3OC)ncn2)cc1C(=O)NCCCN1CCN(C)CC1 [Example 47, 2-Methoxy-5-[6-(2-methoxy-phenyl)-pyrimidin-4-ylamino]-N-[3-(4-methyl-piperazin-1-yl)-propyl]-benzamide]	–	–	< 1000 nM	–
COc1ccc(Nc2cc(-c3ccccc3OC)ncn2)cc1Nc1nc2ccccc2[nH]1 [Example 54, N^3-(1H-Benzoimidazol-2-yl)-4-methoxy-N^1-[6-(2-methoxy-phenyl)-pyrimidin-4-yl]-benzene-1,3-diamine]	–	< 10000 nM	–	–
COc1ccccc1-c1cc(Nc2ccc(N3CCN(C)CC3)c(CO)c2)ncn1 [Example 17]	>0.5 µM	–	–	–
COc1ccc(Nc2cc(-c3ccccc3OC)ncn2)cc1OC(C)=O [Example 93, Acetic acid 2-methoxy-5-[6-(2-methoxy-phenyl)-pyrimidin-4-ylamino]-phenyl ester]	–	–	< 1000 nM	–
CCOc1ccccc1-c1cc(Nc2ccc(OC)c(O)c2)ncn1 [Example 124, 5-[6-(2-Ethoxy-phenyl)-pyrimidin-4-ylamino]-2-methoxy-phenol]	–	< 1000 nM	–	–
CCOc1ccc(Nc2cc(-c3ccccc3OC)ncn2)cc1[N+](=O)[O-] [Example 100, (4-Ethoxy-3-nitro-phenyl)-[6-(2-methoxy-phenyl)-pyrimidin-4-yl]-amine]	–	< 10000 nM	–	–
COc1ccccc1-c1cc(Nc2ccc(Oc3ccccc3)c([N+](=O)[O-])c2)ncn1 [Example 96, [6-(2-Methoxy-phenyl)-pyrimidin-4-yl]-(3-nitro-4-phenoxy-phenyl)-amine]	–	–	> 10000 nM	–
COc1ccc(Nc2cc(-c3ccc(F)cc3OC(C)C)ncn2)cc1[N+](=O)[O-] [Example 85, [6-(4-Fluoro-2-isopropoxy-phenyl)-pyrimidin-4-yl]-(4-methoxy-3-nitro-phenyl)-amine]	–	< 1000 nM	–	–
COc1ccc(F)cc1-c1cc(Nc2cc(N)c(OC)c(F)c2)ncn1 [Example 91, 5-Fluoro-N^1-[6-(5-fluoro-2-methoxy-phenyl)-pyrimidin-4-yl]-4-methoxy-benzene-1,3-diamine]	–	< 1000 nM	–	–
COc1ccc(Nc2cc(-c3ccccc3OC)ncn2)cc1NC=O [Example 55, N-{2-Methoxy-5-[6-(2-methoxy-phenyl)-pyrimidin-4-ylamino]-phenyl}-formamide]	–	< 100 nM	–	–
COc1ccc(F)cc1-c1cc(Nc2ccc(OC)c([N+](=O)[O-])c2)ncn1 [Example 74, [6-(5-Fluoro-2-methoxy-phenyl)-pyrimidin-4-yl]-(4-methoxy-3-nitro-phenyl)-amine]	–	< 10000 nM	–	–
COC(=O)Oc1cc(Nc2cc(-c3ccccc3OC)ncn2)ccc1OC [Example 95, Carbonic acid 2-methoxy-5-[6-(2-methoxy-phenyl)-pyrimidin-4-ylamino]-phenyl ester methyl ester]	–	< 1000 nM	–	–
COc1ccccc1-c1cc(Nc2ccc([N+](=O)[O-])c(OC)c2)ncn1 [Example 58, (3-Methoxy-4-nitro-phenyl)-[6-(2-methoxy-phenyl)-pyrimidin-4-yl]-amine]	–	< 10000 nM	–	–
COc1ccc(Nc2cc(-c3ccccc3OC)ncn2)cc1Br [Example 115, (3-Bromo-4-methoxy-phenyl)-[6-(2-methoxy-phenyl)-pyrimidin-4-yl]-amine]	–	–	< 10000 nM	–
COc1ccc(Nc2cc(-c3ccccc3OC)ncn2)cc1OC(=O)N(C)C [Example 94, Dimethyl-carbamic acid 2-methoxy-5-[6-(2-methoxy-phenyl)-pyrimidin-4-ylamino]-phenyl ester]	–	< 1000 nM	–	–
COc1cc(F)ccc1-c1cc(Nc2ccc(F)c(N)c2)ncn1 [Example 104, 4-Fluoro-N^1-[6-(4-fluoro-2-methoxy-phenyl)-pyrimidin-4-yl]-benzene-1,3-diamine]	–	< 1000 nM	–	–
COC(=O)Nc1cc(Nc2cc(-c3ccccc3OC)ncn2)ccc1OC [Example 51, {2-Methoxy-5-[6-(2-methoxy-phenyl)-pyrimidin-4-ylamino]-phenyl}-carbamic acid methyl ester]	–	< 1000 nM	–	–
